Results published in ChEMBL document CHEMBL1132232, “7alpha-Iodo and 7alpha-fluoro steroids as androgen receptor-mediated imaging agents” (J Med Chem, 1999).

Biological target: T1, Androgen receptor (Homo sapiens) (UniProt P10275)
T1 sequence (whole entry): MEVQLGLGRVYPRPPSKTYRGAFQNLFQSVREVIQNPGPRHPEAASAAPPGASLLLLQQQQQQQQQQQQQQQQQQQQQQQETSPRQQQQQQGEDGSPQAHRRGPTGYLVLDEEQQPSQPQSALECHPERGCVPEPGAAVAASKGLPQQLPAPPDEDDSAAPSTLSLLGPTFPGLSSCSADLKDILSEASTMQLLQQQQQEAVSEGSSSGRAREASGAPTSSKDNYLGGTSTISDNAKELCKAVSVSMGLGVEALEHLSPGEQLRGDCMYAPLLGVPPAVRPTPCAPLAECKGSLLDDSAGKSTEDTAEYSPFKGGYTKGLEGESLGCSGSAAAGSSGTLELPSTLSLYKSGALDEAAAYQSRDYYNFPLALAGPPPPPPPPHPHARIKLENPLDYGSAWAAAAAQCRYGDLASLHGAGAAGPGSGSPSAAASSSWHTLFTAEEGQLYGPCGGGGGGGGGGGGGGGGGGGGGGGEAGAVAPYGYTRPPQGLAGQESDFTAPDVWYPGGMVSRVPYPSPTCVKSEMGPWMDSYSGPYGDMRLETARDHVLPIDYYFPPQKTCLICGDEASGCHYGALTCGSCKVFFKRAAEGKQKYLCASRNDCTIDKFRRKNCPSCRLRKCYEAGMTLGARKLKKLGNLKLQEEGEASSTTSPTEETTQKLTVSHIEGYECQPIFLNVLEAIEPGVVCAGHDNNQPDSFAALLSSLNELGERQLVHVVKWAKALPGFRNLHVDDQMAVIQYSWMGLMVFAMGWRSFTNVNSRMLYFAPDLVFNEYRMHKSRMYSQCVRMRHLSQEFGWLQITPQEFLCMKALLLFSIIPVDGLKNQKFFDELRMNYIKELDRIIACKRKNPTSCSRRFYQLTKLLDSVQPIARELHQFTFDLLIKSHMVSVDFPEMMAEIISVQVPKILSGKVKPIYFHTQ
Conditions: CV-1
Description: Relative stimulatory activity compared to 5-alpha-DHT in CV-1 cells expressing androgen receptor

| SMILES | RSA |
| --- | --- |
| CC12CCC(=O)CC1C[C@@H](F)[C@@H]1[C@@H]2CCC2(C)[C@H]1CC[C@]2(C)O (some centres undefined) | 418 |
| CC12CC[C@H]3[C@@H]([C@H](F)CC4CC(=O)CCC43C)[C@@H]1CCC2O (some centres undefined) | 60 |
| C[C@]12CC[C@@H]3C4CCC(=O)CC4C[C@@H](F)[C@H]3[C@@H]1CC[C@@H]2O (some centres undefined) | 44 |
| CC12CC[C@@H]3C4CCC(=O)CC4C[C@@H](I)[C@H]3[C@@H]1CCC2O (some centres undefined) | 13 |
